Data as given in PubChem BioAssay (NCI).
Values joined by “and” are separate entries in the source; they are usually repeats but may differ in a detail not shown here. Equal entries are not always repeated.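 Exposure lasted 48 hours, with cells grown in 96-well plates and compounds tested at five concentrations. GI50 = concentration required for 50% inhibition of growth. Definition used: TGI = concentration required for complete inhibition of growth.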

Columns and labels:
Assay in all cases: NCI-60 cell line screen, 48 h
IGROV1 ovarian = system: IGROV1 ovarian
SK-MEL-5 melanoma = system: SK-MEL-5 melanoma
HCT-116 colon = system: HCT-116 colon
HL-60(TB) leukemia = system: HL-60(TB) leukemia
CCRF-CEM leukemia = system: CCRF-CEM leukemia
ACHN renal = system: ACHN renal
DU-145 prostate = system: DU-145 prostate
KM12 colon = system: KM12 colon
RPMI-8226 leukemia = system: RPMI-8226 leukemia
CAKI-1 renal = system: CAKI-1 renal

SMILES	GI50 (IGROV1 ovarian)	TGI (IGROV1 ovarian)	GI50 (SK-MEL-5 melanoma)	TGI (SK-MEL-5 melanoma)	GI50 (HCT-116 colon)	TGI (HCT-116 colon)	GI50 (HL-60(TB) leukemia) [µM]	TGI (HL-60(TB) leukemia)	GI50 (CCRF-CEM leukemia)	TGI (CCRF-CEM leukemia)	GI50 (ACHN renal) [µM]	TGI (ACHN renal)	GI50 (DU-145 prostate) [µM]	TGI (DU-145 prostate)	GI50 (KM12 colon)	TGI (KM12 colon)	GI50 (RPMI-8226 leukemia)	TGI (RPMI-8226 leukemia)	GI50 (CAKI-1 renal)	TGI (CAKI-1 renal)
Cn1cc(C2=C(c3cn(CCCN/C(N)=N\[N+](=O)[O-])c4ccccc34)C(=O)NC2=O)c2ccccc21	3.11 µM	11.6 µM	2.33 µM	7.37 µM	1.82 µM	> 25 µM	1.23	7.66 µM	0.0877 µM	6.63 µM	6.26	> 25 µM	6.75	23.6 µM	2.77 µM	> 18.1 µM	5.64 µM	14.8 µM	8.06 µM	> 25 µM
NC1=C(O)/C(=N/NS(=O)(=O)c2ccccc2)C(c2cccc(Cl)c2)O1 (stereo not given)		> 100 µM		> 100 µM		53.6 µM		12.5 µM		12 µM		> 84.1 µM		> 100 µM		> 100 µM		> 47.4 µM		> 58.4 µM
Cc1nc(N(C)C)nc(-c2cccc(-c3ccn(CCN(C)C)n3)c2)c1C	> 20 µM	> 20 µM	15.9 µM	> 20 µM	> 20 µM	> 20 µM	> 20	> 20 µM	> 20 µM	> 20 µM	> 20	> 20 µM	> 20	> 20 µM	> 20 µM	> 20 µM	> 20 µM	> 20 µM	19.5 µM	> 20 µM
O=P1(NCCCl)OCCC(OO)N1CCCl (stereo not given)		> 100 µM		> 100 µM		33.6 µM		> 51.9 µM		> 52.7 µM		33 µM		> 100 µM		> 100 µM		> 100 µM		35.9 µM
N[C@@H](Cc1ccc(N(CCCl)CCCl)cc1)C(=O)O	15.2 µM and 20.3 µM and 48.6 µM	74.3 µM and 57.1 µM and 139 µM	27 µM and 18.4 µM	> 100 µM and 40 µM and 88 µM	25.4 µM and 20.9 µM	> 100 µM and 51.1 µM and 137 µM	6.96	11.6 µM and 33 µM	2.47 µM and 1.96 µM	78.9 µM and > 96.4 µM and 66.8 µM	3.99	21.5 µM and 78.2 µM	18.8	85.7 µM and 227 µM	83.9 µM and 42.7 µM	> 100 µM and > 83.7 µM and 168 µM	19.3 µM and 22.7 µM	75.4 µM and > 85 µM and 183 µM	2.21 µM and 3.86 µM	8.9 µM and 25.4 µM and 67.6 µM
Nc1ncnc2c1c(-c1ccc(Oc3ccccc3)cc1)nn2C[C@H]1SSC[C@H]1O	0.455 µM	2.47 µM	0.159 µM	0.372 µM	0.0489 µM	1.21 µM	0.242	0.66 µM	0.054 µM	> 100 µM	0.499	6.75 µM	1.07	2.37 µM	0.0618 µM	2.22 µM	1.95 µM	9.13 µM	0.938 µM	2.85 µM
O=C(/C=C/c1ccco1)c1cccc(Nc2nc(Nc3ccccc3)nc(Nc3ccccc3)n2)c1	2.87 µM	> 100 µM	22 µM	> 100 µM	2.47 µM	35.3 µM	> 29.6	> 54.3 µM	3.07 µM	> 24.1 µM	30.5	> 100 µM	14.5	> 100 µM	6.06 µM	> 100 µM	0.279 µM	5.47 µM	23.2 µM	> 100 µM
